According to US20230293406A1, “Compositions Comprising (Bio)-Alkanediols and Cooling Agents” (Symrise AG, priority 2020, published 2023):
Converted amounts (≈) assume the structure as drawn. Read-outs that look alike come from different tables or passages of the source. One block for each compound: values may come before it.

Key:
Staphylococcus hominis = assay: Minimum Inhibitory Concentration (MIC) growth inhibition test and Kull Synergy Index; type: cell-based
Method: (§1) The MIC test is a test on growth inhibition. Estimation of the Minimum Inhibitory Concentration (MIC) is executed in 96 well plates. Through the comparison of bacterial growth with positive and negative controls via optical density (OD), different concentrations of given test substances are evaluated. Bacteria are cultivated under adjusted conditions based on information of the German Collection of Microorganisms and Cell Cultures (DSMZ) and stored in 50% Glycerol prior to use. Afterwards, the following method was applied:
(§2) Adding growth medium (according to microorganism) to each well of the microplate. Adding the test-substances in different concentrations, positive controls (water controls only with medium) and negative controls (benchmarks according to organism). Adding the microorganism in a concentration of 10^6 CFU/ml (CFU=colony forming units). Incubation of the microplates at appropriate conditions.
(§3) According to resulting growth, substance concentrations are labelled either as inhibiting or not and the corresponding MIC is defined as the lowest concentration where a complete growth inhibition is visible. Experiments at concentration limits (highest concentration labelled as growth and lowest concentration labelled as inhibiting) are performed at least twice.
(§4) The synergistic activity of 1,2-alkanediols with cooling compounds was determined by measuring the corresponding minimum inhibitory concentrations (MIC values) according to the method described above for antimicrobial activity: Minimum Inhibitory Concentration (MIC)
(§5) In order to calculate the synergy index with MIC values, the Kull equation (I) was used as follows:
(§6) SI=(MICmix×PA)/MICA+(MICmix×PB)/MICB (I)
(§7) wherein • SI is the Synergy Index according to Kull • MICA is the MIC value for Substance A • MICB is the MIC value for Substance B • MICmix is the MIC value for the mixture of substances A and B • PA is the proportion of the substance A in the mixture • PB is the proportion of the substance B in the mixture
(§8) To verify that the tested combinations act synergistically against microorganisms of the natural microbiota of mammalian skin, a corresponding experiment was conducted with representative microbial species. The synergistic activities of mixtures of 1,2-heptanediol and Menthyl lactate as well as for 1,2-nonanediol and Menthyl lactate were determined by measuring the corresponding minimum inhibitory concentrations (MIC values) as indicated in the methods section.

Corynebacterium xerosis = assay: as above; type: cell-based; details: for MIC: Corynebacterium xerosis, read-out: MIC (ppm) Corynebacterium xerosis (converted)
Method: as §1, §2, §3, §4, §5, §6, §7, §8

[1] = Malodour coverage sensory test, trained panel, filter paper with sweat malodour; details: for malodour coverage ranking 6 h: after 6 h; for malodour coverage ranking 24 h: after 24 h; for malodour coverage ranking 48 h: after 48 h
Method: Malodour coverage was tested in an established setup with a trained panel (n=5-9). For this sensory test, a defined amount of the material was applied on a filter paper together with a defined amount of sweat malodour. For evaluation, the panelists were asked to rate the individual samples on a scale from 0 to 10 (0: odourless; 10: strongest imaginable). The results of the malodour rating for all materials were ranked and the position of the individual materials compared over time. A synergistic effect regarding reduction of malodour was found for all mixtures of Frescolat ML and 1,2-heptanediol after 24 h and 48 h, respectively.

Propionibacterium acnes = assay: Minimum Inhibitory Concentration (MIC) growth inhibition test; type: cell-based; details: Cutibacterium acnes; Table 1; >5000: 5000 ppm tested, no growth inhibition
Method: (§9) The MIC test is a test on growth inhibition. Estimation of the Minimum Inhibitory Concentration (MIC) is executed in 96 well plates. Through the comparison of bacterial growth with positive and negative controls via optical density (OD), different concentrations of given test substances are evaluated. Bacteria are cultivated under adjusted conditions based on information of the German Collection of Microorganisms and Cell Cultures (DSMZ) and stored in 50% Glycerol prior to use. Afterwards, the following method was applied: Adding growth medium (according to microorganism) to each well of the microplate. Adding the test-substances in different concentrations, positive controls (water controls only with medium) and negative controls (benchmarks according to organism). Adding the microorganism in a concentration of 10^6 CFU/ml (CFU=colony forming units). Incubation of the microplates at appropriate conditions. According to resulting growth, substance concentrations are labelled either as inhibiting or not and the corresponding MIC is defined as the lowest concentration where a complete growth inhibition is visible. Experiments at concentration limits (highest concentration labelled as growth and lowest concentration labelled as inhibiting) are performed at least twice.

Corynebacterium jeikeium = assay: as above; type: cell-based; details: Table 1
Method: as §9

Candida albicans = assay: as above; type: cell-based; details: Table 1
Method: as §9

Escherichia coli = assay: as above; type: cell-based; details: Table 1
Method: as §9

Staphylococcus aureus = assay: Minimum Inhibitory Concentration (MIC) growth inhibition test, 96 well plates, OD; type: cell-based; details: Table 1
Method: as §9

[2] = Table 3, single substances and mixtures with menthyl lactate, read-out: MIC (ppm) Staphylococcus hominis
[3] = Table 3, single substances and mixtures with menthyl lactate
[4] = Ranking: 1 = lowest malodour to 6 = strongest malodour, Table 6
[5] = Ranking: 1 = lowest malodour to 6 = strongest malodour, Table 5
[6] = Table 4, single substances and mixtures with further cooling agents
[7] = Ranking: 1 = highest malodour to 6 = lowest malodour, single diols at 0.5%, Table 7
[8] = Ranking: 1 = highest malodour to 6 = lowest malodour, single diols at 0.5%, Table 9
[9] = Ranking: 1 = highest malodour to 6 = lowest malodour, single diols at 0.5%, Table 8

MIC (Staphylococcus hominis; [2]): 250 µg/mL
MIC (Corynebacterium xerosis; [3]): 250 µg/mL
Structure (SMILES): CC1CCC(C(C)C)C(OC(=O)C(C)O)C1 (single isomer, unassigned; (-)) [Menthyl lactate, (−)-Menthyl lactate]
malodour coverage ranking 6 h [1, 4]: 3.6
malodour coverage ranking 24 h [1, 5]: 3.6
malodour coverage ranking 24 h [1, 4]: 3.9
malodour coverage ranking 48 h [1, 5]: 3.1

MIC (Staphylococcus hominis; [2]): 10000 µg/mL
MIC (Corynebacterium xerosis; [3]): 5000 µg/mL
MIC (ppm) Corynebacterium xerosis (Corynebacterium xerosis; [6]): 5 000 ppm
Structure (SMILES): CCCCCC(O)CO (stereo not drawn) [1,2-C7, 1,2-heptanediol]
malodour coverage ranking 6 h [1, 7]: 2.3
malodour coverage ranking 6 h [1, 8]: 3.5
malodour coverage ranking 24 h [1, 7]: 3.4
malodour coverage ranking 24 h [1, 8]: 3.1
malodour coverage ranking 24 h [1, 5]: 3.3
malodour coverage ranking 48 h [1, 5]: 3.3

Structure (SMILES): CCCCCCC(O)CO (stereo not drawn) [1,2-C8, 1,2-Octanediol]
malodour coverage ranking 24 h [1, 9]: 2.8

MIC (Staphylococcus hominis; [2]): 1000 µg/mL
MIC (ppm) Corynebacterium xerosis (Corynebacterium xerosis; [3]): 2 500 ppm
MIC (ppm) Corynebacterium xerosis (Corynebacterium xerosis; [6]): 2 500 ppm
Structure (SMILES): CCCCCCCC(O)CO (stereo not drawn) [1,2-C9, 1,2-nonanediol]
malodour coverage ranking 6 h [1, 4]: 4.2
malodour coverage ranking 24 h [1, 4]: 3.9

MIC (Staphylococcus hominis; Table 1, read-out: Minimum Inhibitory Concentration (MIC) Staphylococcus hominis): 125 µg/mL
MIC (Propionibacterium acnes): 250 µg/mL (≈ 1330 µM)
MIC (Corynebacterium jeikeium): 250 µg/mL (≈ 1330 µM)
MIC (Candida albicans): 64 µg/mL (≈ 340 µM)
MIC (Escherichia coli): 250 µg/mL (≈ 1330 µM)
MIC (Staphylococcus aureus): 125 µg/mL (≈ 664 µM)
Structure (SMILES): CCCCCCCCCC(O)CO (stereo not drawn) [1,2-C11, 1,2-undecandiol]

MIC (Corynebacterium xerosis; [6]): 12500 µg/mL
Structure (SMILES): CCCCC(O)C(C)O (stereo not drawn) [2,3-C7, 2,3-Heptanediol]
malodour coverage ranking 6 h [1, 7]: 3.2
malodour coverage ranking 24 h [1, 7]: 3.5

Structure (SMILES): CCCCCC(O)C(C)O (stereo not drawn) [2,3-C8, 2,3-Octanediol]
malodour coverage ranking 6 h [1, 8]: 2.3
malodour coverage ranking 24 h [1, 9]: 3.2
malodour coverage ranking 24 h [1, 8]: 3.4

MIC (Corynebacterium xerosis; [6]): 2500 µg/mL
Structure (SMILES): CCCCCCC(O)C(C)O (stereo not drawn) [2,3-C9, 2,3-nonanediol]

MIC (Corynebacterium xerosis; [6]): 500 µg/mL
Structure (SMILES): CC1CCC(C(C)C)C(OCC(O)CO)C1 (stereo not drawn) [3-((−)-Menthoxy)propane-1,2-diol]

MIC (Corynebacterium xerosis; [6]): 1000 µg/mL
Structure (SMILES): CC1CCC(C(C)C)C(O)C1 (stereo not drawn) [Menthol]
